Tests used:
[1] = test system: C-terminal processing of PHI(1–27); format: biochemical, mouse; details: PHI(1–27) with membrane lysate 1 mg/mL in PBS, 37 °C, 15 min, LC-MS; o-phenanthroline 1 mM, phosphoamidon 10 µM
DPP4 = DPP4 (Mus musculus, UniProt P28843); format: biochemical
plasma = details: cited from earlier work
human plasma = details: cited from earlier work

Chain of DPP4 (P28843 whole entry): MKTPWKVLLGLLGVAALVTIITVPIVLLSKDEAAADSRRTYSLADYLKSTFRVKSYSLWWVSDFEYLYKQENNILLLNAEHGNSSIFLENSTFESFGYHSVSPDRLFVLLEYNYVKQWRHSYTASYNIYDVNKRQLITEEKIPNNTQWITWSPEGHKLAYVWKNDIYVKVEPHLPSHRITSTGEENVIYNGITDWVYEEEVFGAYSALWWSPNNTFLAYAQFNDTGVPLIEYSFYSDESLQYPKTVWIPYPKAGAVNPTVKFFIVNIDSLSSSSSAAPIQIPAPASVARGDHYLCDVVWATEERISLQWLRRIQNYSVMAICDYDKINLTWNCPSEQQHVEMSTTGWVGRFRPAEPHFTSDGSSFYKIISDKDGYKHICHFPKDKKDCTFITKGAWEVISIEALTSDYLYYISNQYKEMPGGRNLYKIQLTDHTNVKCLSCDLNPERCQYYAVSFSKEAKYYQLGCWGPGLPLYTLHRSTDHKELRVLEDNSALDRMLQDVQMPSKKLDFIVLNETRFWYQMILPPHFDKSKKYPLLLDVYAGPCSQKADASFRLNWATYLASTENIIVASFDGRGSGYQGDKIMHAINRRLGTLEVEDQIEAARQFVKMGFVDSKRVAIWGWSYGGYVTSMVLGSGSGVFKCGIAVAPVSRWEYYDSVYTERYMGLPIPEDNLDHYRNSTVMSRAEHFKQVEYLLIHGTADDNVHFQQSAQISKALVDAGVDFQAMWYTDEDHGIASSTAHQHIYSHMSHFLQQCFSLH

Compound	effect on C-terminal processing of PHI(1–27) (PHI(1–22) production) [1]	other results
c1cnc2c(c1)ccc1cccnc12 [1,10-phenanthroline]	reducing the production of PHI(1–22)	
CNC(=O)[C@H](Cc1c[nH]c2ccccc12)NC(=O)[C@@H](CC(=O)NO)CC(C)C [GM6001]	no impact	
O=S(=O)(F)Cc1ccccc1 [PMSF, phenylmethylsulfonyl fluoride]		inhibition of the production of PHI(3–27) (N-terminal processing) (DPP4): strongly inhibited the production of PHI(3–27)
CC(C)C[C@H](NP(=O)(O)O[C@@H]1O[C@@H](C)[C@H](O)[C@@H](O)[C@H]1O)C(=O)N[C@@H](Cc1c[nH]c2ccccc12)C(=O)O [phosphoramidon]	no impact	
HAEGTFTSDVSSYLEGQAAKEFIAWLVKGRG-CONH2		fragment found (plasma): GLP-1(9–36), major; fragment found (human plasma): GLP-1(9–36)
